Reference: US6727278B1, “Pharmaceutically active agents that impede amyloid formation in vivo” (DMS Pharmaceutical Inc., priority 1986, dated 2004)

Assays:
DMS (dense microspheres) = test: Test 1: in vitro disruption of DMS on a glass slide, Congo Red red-green birefringence; conditions: for anti-amyloid activity in vitro: concentration of about 10^−2 M; for activity in the in vitro assay: 10^−2-to-10^−3 M concentration range
From the text: TEST 1 In vitro Disruption of DMS on a Glass Slide
Homogeneous DMS preparations are placed by droplet on a clean dry glass slide. The volume and number of DMS used is optional but is recommended to be at least several thousand to facilitate interpretation (see Example 1 below). Larger samples are more costly but are easier and more unequivocal to examine. The DMS are mechanically disrupted using a stainless steel spatula scraping and pressing the DMS against a glass slide in repetitive manual back and forth motions for one minute. The slide is allowed to air dry. A few drops of Congo Red stain are then added to the dried slide and gently passed over the dried disrupted DMS for 30 seconds and the stain is then drained off the slide onto tissue paper or filter paper. The slide is then examined in the light microscope, the latter fitted with crossed polarizing lenses to assess red-green congophilic birefringence.
The result is an unequivocal red-to-green (“apple green”) birefringence similar to the red-to-apple green birefringence found in the senile-plaque amyloid of Alzheimer patients, and in quantities proportional to the volume of DMS applied to the slide initially.
For test purposes, a corresponding DMS sample is contacted with a possible pharmacological agent, and the DMS disruption/staining procedure as described above is repeated. Many variations are possible, e.g., the active agent may be applied to the DMS in solution, before application to the slide, or to the DMS on the slide. In any event, if the agent prevents the red-green birefringence observed in the negative control slide (no agent present), then the active agent should be tested further for efficacy against cerebral amyloidosis.
Approximately 80,000 homogeneously extracted DMS were placed in a droplet from a Pasteur pipette onto a glass slide, and the droplet was air dried. The DMS adhered to the glass slide. Acetylcholine (20 mM) in physiological saline was added in a droplet, as a possible test compound, to DMS.
The DMS were mechanically disrupted, in the presence of the test compound, as described above and then were allowed to air dry. A control slide was treated exactly in the same manner, except that the test compound was not added. Congo Red stain was added, and the reaction products were examined, as previously described.

human DMS = test: In vivo assay: amyloid formation induced by intracerebral injection of human DMS with the compound, Congo Red histology; parameters: species or system Male Wistar rats; conditions: for Mean Lesion Area Composed of CBADs: percentage of lesion area, ** = significant decrease from untreated controls; for inhibition of amyloid formation in vivo: in-tissue levels in the range of 10^−5 to 10^−6 M
[1] = cited from earlier work
[2] = cited from earlier work; remark: listed apart in the source
[3] = 10^−5 − 10^−6M, CBADs = Congophilic Birefringent Amyloid Deposits

For `O=C(O)c1cccnc1C(=O)O` [2,3-pyridine-dicarboxylic acid], the “anti-amyloid activity in vitro” value (DMS (dense microspheres)) was “anti-amyloid activity”.
For `Cc1cc(Cl)nc(N)n1` [2-amino-4-chloro-6-methyl pyrimidine], the “anti-amyloid activity in vitro” value (DMS (dense microspheres)) was “anti-amyloid activity”.
With `Nc1nc(O)nc2[nH]ncc12` [4-amino-6-hydroxypyrazolo [3,4-D] pyrimidine] the “anti-amyloid activity in vitro” value (DMS (dense microspheres)) was “anti-amyloid activity”.
In the case of `CCc1nc(N)nc(N)c1-c1ccc(Cl)cc1` [Daraprim, Pyrimethamine], the “Mean Number of CBADs Per Animal” value (human DMS; [3]) is reported as 4, the “Mean Lesion Area Composed of CBADs” value (human DMS; 10^−5 − 10^−6M) is reported as 0.2** and the “inhibition of amyloid formation in vivo” value (human DMS) is reported as “inhibit amyloid formation in vivo”. The oral absorption [1] was “completely absorbed orally”.
With `Cc1noc(NS(=O)(=O)c2ccc(N)cc2)c1C` [Gantrisin, Sulfisoxazole] the “Mean Number of CBADs Per Animal” value (human DMS; 10^−2M) was 1, the “Mean Lesion Area Composed of CBADs” value (human DMS; 10^−2M) was 0.1** and the “Mean Number of CBADs Per Animal” value (human DMS; [3]) was 108. For the same compound, the “Mean Lesion Area Composed of CBADs” value (human DMS; 10^−5 − 10^−6M) was 8.4 and the absorption and excretion ([1]; route not stated) was “rapidly absorbed and excreted”.
For `O=C([O-])c1cc(=O)c2c(OCC(O)COc3cccc4oc(C(=O)[O-])cc(=O)c34)cccc2o1.[Na+].[Na+]` [Intal, Cromolyn Sodium], the “Mean Number of CBADs Per Animal” value (human DMS; [3]) is listed as 2, the “Mean Lesion Area Composed of CBADs” value (human DMS; 10^−5 − 10^−6M) is listed as 0.4** and the “fraction entering the lungs” value ([1]; administered as a powder from an inhaler) is listed as “about 10%”. For the same compound, the oral absorption [1] was “poorly absorbed orally”.
In the case of `OCCN(CCO)c1nc(N2CCCCC2)c2nc(N(CCO)CCO)nc(N3CCCCC3)c2n1` [Persantine, 2,6-bis-(diethanolamino)-4,8-dipiperidinopyrimido-(5,4-d)-pyrimidine], the “Mean Number of CBADs Per Animal” value (human DMS; 10^−2M) is reported as 4, the “Mean Lesion Area Composed of CBADs” value (human DMS; 10^−2M) is reported as 0.2** and the “Mean Number of CBADs Per Animal” value (human DMS; [3]) is reported as 146. The “Mean Lesion Area Composed of CBADs” value (human DMS; 10^−5 − 10^−6M) was 14.6.
For `Cl.Nc1c2c(nc3ccccc13)CCCC2` [THA, 9-amino-1,2,3,4-tetrahydroacridine hydrochloride], the “anti-amyloid activity in vitro” value (DMS (dense microspheres)) was “anti-amyloid activity”.
For `NC(=O)N1c2ccccc2C=Cc2ccccc21` [carbamazepine], the “activity in the in vitro assay” value (DMS (dense microspheres)) was “inactive”.
For `CC[C@H]1OC(=O)[C@H](C)[C@@H](O[C@H]2C[C@@](C)(OC)[C@@H](O)[C@H](C)O2)[C@H](C)[C@@H](O[C@@H]2O[C@H](C)C[C@H](N(C)C)[C@H]2O)[C@](C)(O)C[C@@H](C)C(=O)[C@H](C)[C@@H](O)[C@]1(C)O` [erythromycin, Erythromycin], the “Mean Number of CBADs Per Animal” value (human DMS; [3]) was 2, the “Mean Lesion Area Composed of CBADs” value (human DMS; 10^−5 − 10^−6M) was 0.2** and the “inhibition of amyloid formation in vivo” value (human DMS) was “inhibit amyloid formation in vivo”. The half-life ([1]; in vivo) was “about sixteen” and the solubility in water [2] was “water-soluble”.
For `CN(C)C(=O)Oc1cccc([N+](C)(C)C)c1` [neostigmine methylsulfate], the “activity in the in vitro assay” value (DMS (dense microspheres)) was “not to be active”.
In the case of `O=P(O)(O)O[C@H]1[C@H](OP(=O)(O)O)[C@@H](OP(=O)(O)O)[C@H](OP(=O)(O)O)[C@@H](OP(=O)(O)O)[C@H]1OP(=O)(O)O` [phytic acid], the “activity in the in vitro assay” value (DMS (dense microspheres)) is reported as “not to be active”.
In the case of `CN(C)C(=O)Oc1ccc[n+](C)c1` [pyridostigmine bromide], the “activity in the in vitro assay” value (DMS (dense microspheres)) is reported as “not to be active”.
In the case of `CSc1ccc2c(c1)N(CCC1CCCCN1C)c1ccccc1S2` (stereo not shown) [thioridazine], the “activity in the in vitro assay” value (DMS (dense microspheres)) is reported as “inactive”.
For `O=c1n(CCCN2CCN(c3cccc(Cl)c3)CC2)nc2ccccn12` [trazodone], the “activity in the in vitro assay” value (DMS (dense microspheres)) was “inactive”.
With `O=C1N(Cc2ccccc2)C2C[S+]3CCCC3C2N1Cc1ccccc1` (stereo not shown) [trimethophan camsylate] the “activity in the in vitro assay” value (DMS (dense microspheres)) was “inactive”.
With `CCCC(CCC)C(=O)O` [valproic acid] the “activity in the in vitro assay” value (DMS (dense microspheres)) was “inactive”.
